# Tests used:
# [1] = target: T1, 5-hydroxytryptamine receptor 2C (Homo sapiens, UniProt P28335); assay: Binding affinity towards human cloned 5-hydroxytryptamine 2C receptor of HEK293 cells by displacement of [3H]mesulergine; format: cell-based
# T1 sequence (P28335 whole entry): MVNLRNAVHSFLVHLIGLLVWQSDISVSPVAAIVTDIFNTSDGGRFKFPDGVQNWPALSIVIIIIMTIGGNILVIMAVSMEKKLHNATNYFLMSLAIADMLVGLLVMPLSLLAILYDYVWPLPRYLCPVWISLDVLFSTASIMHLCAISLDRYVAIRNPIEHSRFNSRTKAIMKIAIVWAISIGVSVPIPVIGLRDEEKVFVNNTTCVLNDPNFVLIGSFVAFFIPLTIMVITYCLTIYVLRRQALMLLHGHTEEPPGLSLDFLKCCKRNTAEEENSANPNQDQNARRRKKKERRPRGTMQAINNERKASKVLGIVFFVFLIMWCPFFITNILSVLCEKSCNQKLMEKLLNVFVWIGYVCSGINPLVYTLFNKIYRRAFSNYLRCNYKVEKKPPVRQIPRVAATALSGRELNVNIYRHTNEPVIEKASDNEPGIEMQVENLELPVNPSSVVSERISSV
# [2] = target: 5-hydroxytryptamine receptor 2A (Homo sapiens, UniProt P28223); assay: Binding affinity towards human cloned 5-hydroxytryptamine 2A receptor of HEK293 cells by displacement of [3H]ketanserin; format: cell-based
# [3] = target: Serotonin receptor (2b and 2c) (Homo sapiens) (UniProt P41595+P28335); assay: Selectivity expressed as ratio of serotonin 5-HT2C receptor over serotonin 5-HT2B receptor; format: protein assay
# [4] = target: Serotonin 2 receptors; 5-HT2a & 5-HT2c (Homo sapiens) (UniProt P28223+P28335); assay: Selectivity expressed as ratio of serotonin 5-HT2C receptor over serotonin 5-HT2A receptor; format: protein assay
# [5] = target: 5-hydroxytryptamine receptor 2B (Homo sapiens, UniProt P41595); assay: Binding affinity towards human cloned 5-HT2B receptor of HEK293 cells by displacement of [3H]5-HT; format: cell-based
# [6] = system: Rattus norvegicus; assay: Dose required to reverse mCPP induced hypolocomotion by 50% at 7 mg/kg, ip administration 30 min pretest; format: functional; details: 0.5 h, route intraperitoneal, read-out: ID50 (the source's name)
# [7] = system: Rattus norvegicus; assay: Percent reversal of mCPP induced hypolocomotion after peroral administration at 5 mg/kg in rat; format: functional; details: route oral
# Chain of 5-hydroxytryptamine receptor 2B (P41595 whole entry): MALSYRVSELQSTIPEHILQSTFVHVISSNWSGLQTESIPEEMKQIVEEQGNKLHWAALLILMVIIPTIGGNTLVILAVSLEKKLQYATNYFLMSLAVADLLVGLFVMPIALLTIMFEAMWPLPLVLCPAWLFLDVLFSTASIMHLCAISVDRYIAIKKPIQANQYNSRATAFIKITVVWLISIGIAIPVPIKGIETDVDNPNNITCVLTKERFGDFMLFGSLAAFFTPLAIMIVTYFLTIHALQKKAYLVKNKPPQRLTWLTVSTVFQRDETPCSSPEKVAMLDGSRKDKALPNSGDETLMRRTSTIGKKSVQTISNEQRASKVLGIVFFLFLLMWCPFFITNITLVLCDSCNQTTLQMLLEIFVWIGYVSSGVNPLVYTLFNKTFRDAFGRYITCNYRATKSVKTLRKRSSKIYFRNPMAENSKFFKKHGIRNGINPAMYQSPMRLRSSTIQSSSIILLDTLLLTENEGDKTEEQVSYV
# Chain of Serotonin 2 receptors; 5-HT2a & 5-HT2c (Homo sapiens) (P28223 whole entry, looked up, one chain of several): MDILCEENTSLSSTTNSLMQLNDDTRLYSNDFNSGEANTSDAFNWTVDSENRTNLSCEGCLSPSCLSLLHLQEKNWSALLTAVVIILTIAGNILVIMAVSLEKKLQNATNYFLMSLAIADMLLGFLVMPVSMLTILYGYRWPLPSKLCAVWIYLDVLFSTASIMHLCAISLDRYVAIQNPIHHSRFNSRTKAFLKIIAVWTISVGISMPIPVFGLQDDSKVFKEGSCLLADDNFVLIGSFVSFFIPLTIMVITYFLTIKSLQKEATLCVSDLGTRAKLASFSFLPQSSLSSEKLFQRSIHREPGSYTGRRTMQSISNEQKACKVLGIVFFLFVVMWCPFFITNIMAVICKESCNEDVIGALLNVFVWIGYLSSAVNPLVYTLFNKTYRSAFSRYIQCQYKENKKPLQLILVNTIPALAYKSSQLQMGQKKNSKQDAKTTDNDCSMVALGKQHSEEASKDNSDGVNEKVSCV
# Chain of 5-hydroxytryptamine receptor 2A (P28223 whole entry): as the sequence (P28223 whole entry, looked up, one chain of several) above
Compound,Ki [1],Ki [2],Selectivity [3],Selectivity [4],Ki [5],ED50 [6],Reversal [7]
Cc1cc2c(cc1C(F)(F)F)N(C(=O)Nc1ccc(Oc3cccnc3C)nn1)CC2,3.16 nM,398 nM,40,130,126 nM,1.2 mg/kg,–
Cc1ncccc1Oc1ccc(NC(=O)N2CCc3cc(C(F)(F)F)ccc32)cn1,3.98 nM,2510 nM,160,630,631 nM,2.1 mg/kg,–
CSc1cc2c(cc1C(F)(F)F)N(C(=O)Nc1ccc(Oc3cccnc3C)nc1)CC2,0.398 nM,251 nM,100,630,39.8 nM,–,31%
Cc1cc2c(cc1F)N(C(=O)Nc1ccc(Oc3cccnc3C)nc1)CC2,1.58 nM,794 nM,100,500,158 nM,–,46%
Cc1cc2c(cc1Cl)N(C(=O)Nc1ccc(Oc3cnccc3Cl)nc1)CC2,0.501 nM,15.8 nM,25,30,12.6 nM,–,–
Cc1ncccc1Oc1ccc(NC(=O)N2CCc3cc(F)c(Cl)cc32)cn1,6.31 nM,501 nM,100,80,631 nM,–,16%
CCc1cc2c(cc1C(F)(F)F)N(C(=O)Nc1ccc(Oc3cccnc3C)nc1)CC2,2.51 nM,501 nM,50,200,126 nM,–,12%
Cc1cc2c(cc1C(F)(F)F)N(C(=O)Nc1ccc(Oc3cccnc3C)nc1)CC2 [SB-243213],–,–,100,160,–,1 mg/kg,–
Cc1cc2c(cc1Br)N(C(=O)Nc1ccc(Oc3cccnc3C)nc1)CC2,0.794 nM,158 nM,80,200,63.1 nM,–,49%
Cc1cc2c(cc1Cl)CCN2C(=O)Nc1ccc(Oc2cccnc2C)nc1,1.26 nM,158 nM,100,130,126 nM,–,7.3%
Cc1ncccc1Oc1ccc(NC(=O)N2CCc3cc(F)ccc32)cn1,39.8 nM,> 10000 nM,130,> 250,5010 nM,–,4%
Cc1cc2c(cc1Cl)N(C(=O)Nc1ccc(Oc3cccnc3C)nc1)CC2,–,–,100,160,–,–,–
Cc1ncccc1Oc1ccc(NC(=O)N2CCc3cc(Br)c(C(F)(F)F)cc32)cn1,1.26 nM,126 nM,80,100,100 nM,2 mg/kg,–
Cc1ncccc1Oc1ccc(NC(=O)N2CCc3cc(Cl)ccc32)cn1,6.31 nM,> 10000 nM,320,> 1600,2000 nM,–,40%
COc1cc2c(cc1C(F)(F)F)N(C(=O)Nc1cnc(Oc3cccnc3C)cc1C)CC2,200 nM,631 nM,1.3,3,251 nM,–,–
Cc1cc2c(cc1C(F)(F)F)N(C(=O)Nc1cnc(Oc3cccnc3C)c(Cl)c1)CC2,1.58 nM,251 nM,25,160,39.8 nM,> 5 mg/kg,–
Cc1cc2c(cc1Cl)N(C(=O)Nc1ccc(Oc3cccnc3C)nn1)CC2,2 nM,1580 nM,80,800,158 nM,1.6 mg/kg,–
Cc1ncccc1Oc1ccc(NC(=O)N2CCc3ccccc32)cn1,100 nM,> 10000 nM,20,> 100,2000 nM,–,–
Cc1ncccc1Oc1ccc(NC(=O)N2CCc3c(Cl)cccc32)cn1,15.8 nM,> 10000 nM,160,> 630,2510 nM,–,6%
Cc1ncccc1Oc1ccc(NC(=O)N2CCc3cc(Cl)c(Cl)cc32)cn1,2 nM,251 nM,160,130,316 nM,–,32%
Cc1ncccc1Oc1ccc(NC(=O)N2CCc3cc(I)ccc32)cn1,3.16 nM,1580 nM,100,500,316 nM,–,14%

Compound,Ki [1],Ki [2],Selectivity [3],Selectivity [4],Ki [5],ED50 [6],Reversal [7]
CCc1ncccc1Oc1ccc(NC(=O)N2CCc3cc(C)c(Cl)cc32)cn1,2 nM,200 nM,25,100,50.1 nM,1.8 mg/kg,–
Cc1cc2c(cc1Cl)N(C(=O)Nc1cnc(Oc3cccnc3C)c(Cl)c1)CC2,0.631 nM,126 nM,30,200,20 nM,> 5 mg/kg,–
Cc1ncccc1Oc1ccc(NC(=O)N2CCc3ccc(C(F)(F)F)cc32)cn1,5.01 nM,158 nM,80,30,398 nM,–,–
Cc1cc2c(cc1Cl)N(C(=O)Nc1cnc(Oc3cccnc3C)c(C)c1)CC2,1.58 nM,126 nM,20,80,31.6 nM,0.8 mg/kg,–
Cc1cc2c(cc1Cl)N(C(=O)Nc1cnc(Oc3cccnc3C)nc1)CC2,3.16 nM,> 631 nM,20,> 200,63.1 nM,3.7 mg/kg,–
Cc1cc2c(cc1C(F)(F)F)N(C(=O)Nc1cnc(Oc3cccnc3C)cn1)CC2,2 nM,631 nM,40,320,79.4 nM,3.6 mg/kg,–
Cc1cc2c(cc1Cl)N(C(=O)Nc1ccc(Oc3cnccc3C)nc1)CC2,1 nM,7.94 nM,30,8,31.6 nM,–,–
Cc1ncccc1Oc1ccc(NC(=O)N2CCc3c(Br)cccc32)cn1,15.8 nM,> 6310 nM,> 130,> 400,> 2000 nM,–,3%
COc1cc2c(cc1C(F)(F)F)N(C(=O)Nc1ccc(Oc3cccnc3C)nc1)CC2,–,–,80,1300,–,–,–
Cc1ncccc1Oc1ccc(NC(=O)N2CCc3c2ccc(Cl)c3Cl)cn1,3.16 nM,3160 nM,160,1000,501 nM,–,4%
Cc1cc2c(cc1C(F)(F)F)N(C(=O)Nc1ccc(Oc3cncnc3C)nc1)CC2,2 nM,79.4 nM,6,40,12.6 nM,–,–
Cc1ncccc1Oc1ccc(NC(=O)N2CCc3c2cc(Cl)c(C)c3Cl)cn1,1 nM,63.1 nM,40,60,39.8 nM,–,85%
Cc1ccc2c(c1Br)CCN2C(=O)Nc1ccc(Oc2cccnc2C)nc1,1.58 nM,> 1000 nM,160,> 630,251 nM,–,0%
Cc1ncccc1Oc1ccc(NC(=O)N2CCc3c2cccc3C(F)(F)F)cn1,200 nM,> 10000 nM,> 50,> 50,> 10000 nM,–,–
Cc1ncccc1Oc1ccc(NC(=O)N2CCc3cc(Br)ccc32)cn1,3.16 nM,> 3980 nM,200,> 1300,631 nM,–,10%
CCCc1ncccc1Oc1ccc(NC(=O)N2CCc3cc(C)c(Cl)cc32)cn1,1.58 nM,158 nM,60,100,100 nM,–,18%
Cc1ncccc1Oc1ccc(NC(=O)N2CCc3c2cc(C(F)(F)F)c2c3CCO2)cn1,1.26 nM,501 nM,50,400,63.1 nM,9 mg/kg,–
Cc1ncccc1Oc1ccc(NC(=O)N2CCc3ccc(Cl)cc32)cn1,3.98 nM,316 nM,200,80,794 nM,–,3%
Cc1cc2c(cc1Cl)N(C(=O)Nc1ccc(Oc3cccnc3Cl)nc1)CC2,1.26 nM,100 nM,40,80,50.1 nM,4.5 mg/kg,–
Cc1cc2c(cc1Cl)N(C(=O)Nc1ccc(Oc3cccnc3C(C)C)nc1)CC2,126 nM,794 nM,2,6,200 nM,–,–

# Source: ChEMBL document CHEMBL1133064, “1-[2-[(Heteroaryloxy)heteroaryl]carbamoyl]indolines: novel and selective 5-HT2C receptor inverse agonists with potential as antidepressant/anxiolytic agents” (Bioorg Med Chem Lett, 2000)
